Assay results from ChEMBL document CHEMBL4483862, “Open-source discovery of chemical leads for next-generation chemoprotective antimalarials” (2018).

System: Plasmodium berghei
Assay: Luciferase/luciferin-expressing antifolate-resistant parasites were used to infect a culture of HepG2 cells that were pre-incubated with compounds. Infected hepatocytes emit light due to the luciferase reaction. Assay results are presented as the percent inhibition of light emission compared to control. […]
Assay type: functional
Conditions: sporozoite; for IC90: read-out: LUCIFERASE INFECTION ASSAY - IC90
[1] = read-out: LUCIFERASE INFECTION ASSAY - IC50

Compound | IC50 [1] | IC90 | further results
CC(Oc1ccc(Cl)cc1Cl)C(=N)NO (configuration not stated) | > 13.2 µM | > 13.2 µM | 
O=C(Nc1ccccc1)c1nnsc1S(=O)(=O)c1ccc(Cl)cc1 | > 8.69 µM | > 8.69 µM | 
Cc1sc2ncnc(Sc3nnnn3-c3ccc(Cl)cc3)c2c1C | > 10 µM | > 10 µM | 
COc1ccc(Nc2ncnc3scc(-c4ccc(OC)cc4)c23)cc1 | 2.65 µM | 4.29 µM | 
Cc1ccc(-n2c(C)cc(C3=NN=C(NC4CC4)SC3)c2C)cc1C |  | 3.59 µM | 
COc1cccc(C(=O)Nc2nc3ccccc3[nH]2)c1 | > 10 µM | > 10 µM | 
COc1ccc(CCNc2ncnc3sc(C)cc23)cc1OC | 0.791 µM | 2.92 µM | 
O=S(=O)(Cc1noc(-c2cccs2)n1)c1ccc(F)cc1 | > 10.2 µM | > 10.2 µM | 
CC(=O)c1cnc(N)nc1C | > 21.8 µM | > 21.8 µM | 
CC(=O)Nc1ccc(CC#N)cc1 | > 18.9 µM | > 18.9 µM | 
CO[C@H]1[C@H](O)[C@H](O[C@H]2CC[C@]3(C)C4CC[C@]5(C)C(C6=CC(=O)OC6)CC[C@]5(O)C4CC[C@@H]3C2)O[C@@H](C)[C@@H]1O (some centres not stated) |  | 0.138 µM | 
O=C(NC1CC1)c1ccc(-c2cnc3c(NCc4cccs4)nccn23)cc1 |  | 3.14 µM | 
CN(C)CCNC(=O)c1cccc(-c2cnc3ccc(-c4cccs4)nn23)c1 |  | 3.6 µM | 
Cn1ccc2cc(-c3cnc4cnc(-c5ccccc5CO)cn34)ccc21 |  | 0.0193 µM | 
COc1ccc(C(=O)CSC2=NCCCC2)cc1 | > 9.59 µM | > 9.59 µM | 
CCN(CC)c1ccc(NC(=S)NC(=O)c2ccco2)cc1S(=O)(=O)Nc1ccc(OC)cc1 | > 10 µM | > 10 µM | 
Cn1c(N)c(C(=O)COC(=O)c2c3c(nc4ccccc24)CCCCC3)c(=O)n(C)c1=O | 8.99 µM | > 10 µM | 
Cc1noc(C)c1C(=O)ONC(=N)c1ccc(OC(F)(F)F)cc1 | > 9.61 µM | > 9.61 µM | 
COC(=O)c1c(N)[nH]c2cc(C(F)(F)F)ccc12 | > 12.8 µM | > 12.8 µM | 
O=C(Nc1ccc(N2CCCC2)cn1)c1cccc(F)c1 |  | 0.0621 µM | 
CCNc1ccc(S(=O)(=O)C(F)(F)F)cc1NC(=O)c1ccccc1NS(=O)(=O)c1ccc(F)cc1 | 1.44 µM | > 10 µM | 
CS(=O)(=O)c1sc(NC(=O)Nc2ccccc2Cl)c2ccccc12 | > 8.66 µM | > 8.66 µM | 
CNC(=O)c1cccc(Nc2ccn3nc(-c4ccccc4)cc3n2)c1 |  | 3.76 µM | 
CS(=O)(=O)c1sc(NC(=O)Nc2ccc(Cl)cc2)c2c1C=CCC2 | > 8.62 µM | > 8.62 µM | 
O=C(c1cccs1)N1CCc2[nH]nc(-c3ccc(Cl)cc3)c2C1 | > 9.6 µM | > 9.6 µM | 

Compound | IC50 [1] | IC90 | further results
COC(=O)c1sc2nccnc2c1N | > 15.8 µM | > 15.8 µM | 
C#CCCCCCCCCC(=O)NO | > 10 µM | > 10 µM | 
Cc1nn(S(=O)(=O)c2ccc(-c3ccccn3)s2)c(C)c1Br | > 8.29 µM | > 8.29 µM | 
CN(C)c1ccc(C2CC(=O)c3ccccc3N2)cc1 (configuration not stated) | > 12.4 µM | > 12.4 µM | 
CCSc1nc(SCCCN(C)C)c2c3c(sc2n1)COC(C)(C)C3 | > 8.3 µM | > 8.3 µM | 
O=C(Nc1ccc(F)cc1)c1nnsc1S(=O)(=O)c1ccc(Cl)cc1 | 6.54 µM | > 8.29 µM | 
CS(=O)(=O)c1ncc(Cl)c(C(=O)C(C#N)c2nc3ccccc3s2)n1 (configuration not stated) | 3.08 µM | 3.59 µM | 
Cc1ccc(-n2nc(C)c3c(C(=O)N4CCC(C)CC4)cc(-c4ccncc4)nc32)cc1 | > 10 µM | > 10 µM | 
C=S(=O)(NS(=O)(=O)c1ccc(-c2cc(C(F)(F)F)n(C)n2)s1)c1ccc(Cl)cc1 (configuration not stated) | > 6.82 µM | > 6.82 µM | 
OCC1CCCN(c2nn3cc(-c4ccccc4)nc3s2)C1 (configuration not stated) |  | 0.00758 µM | 
OCCCNc1nc(-c2ccccc2)nc2sc(-c3ccccc3)cc12 | > 10 µM | > 10 µM | 
O=C(NCc1ccc(C(F)(F)F)cc1)c1cc(C(F)(F)F)cc(C(F)(F)F)c1 | > 7.95 µM | > 7.95 µM | 
Cc1cc(NC(=O)C(C)(C)C)sc1C(=O)Nc1ccccc1O |  | 0.526 µM | 
Cc1ccccc1-c1cn2c(-c3ccc(N(C)C)cc3)cnc2cn1 |  | > 10 µM | 
CCOC(=O)NNC(=S)Nc1ccccc1OC | > 12.3 µM | > 12.3 µM | 
CC(C)OC(=O)c1nnsc1S(=O)(=O)c1ccc(Cl)cc1 | > 9.52 µM | > 9.52 µM | 
Cc1c(C#N)nn(-c2cccc(Cl)c2)c(=O)c1C#N | > 12.2 µM | > 12.2 µM | 
CC1(C)C=Cc2cc(C(=N)NOC(=O)c3cccs3)ccc2O1 |  | 0.21 µM | 
Cn1nc(-c2ccc(S(=O)(=O)NCc3cccnc3)s2)cc1C(F)(F)F | > 8.2 µM | > 8.2 µM | 
CN(CC1COc2ccccc2O1)C(=O)Nc1nc2ccccc2s1 (configuration not stated) |  | > 10 µM | 
COC(=O)c1ccc(C(=O)OC)c(N(C)S(C)(=O)=O)c1 | > 11 µM | > 11 µM | 
COc1ccc(Nc2nccn3c(-c4cccc(NC(C)=O)c4)cnc23)cc1 |  | 0.122 µM | 
Cc1ccccc1NC(=O)Nc1scc(S(=O)(=O)C(C)C)c1Cl | > 8.85 µM | > 8.85 µM | 
COc1ccc(C2CC(c3ccccc3)=NN2C(=O)CSc2ncnc3ccccc23)cc1 (configuration not stated) | > 10 µM | > 10 µM | 
CC(C)(C)C(=O)ONC(N)=CS(=O)(=O)c1ccc(Cl)cc1 | > 9.92 µM | > 9.92 µM | 

Compound | IC50 [1] | IC90 | further results
CC1(C)C=Cc2cc(-c3noc(-c4ccccc4)n3)ccc2O1 |  | 0.379 µM | 
CC(NC(=O)COC(=O)c1cc(O)c2ccccc2c1O)C1CC2CCC1C2 (configuration not stated) | > 10 µM | > 10 µM | 
CC(C)(C)c1ccc(OCCNC(=O)c2cccnc2)cc1 | > 11.1 µM | > 11.1 µM | 
CN(C)Cc1ccc(C(=O)Nc2nc3ccccc3[nH]2)cc1 |  | 0.483 µM | 
O=C(Nc1ccc(N2CCOCC2)cn1)c1ccccc1 |  | > 10 µM | 
COc1ccc(CCn2c(C)cc(C(=O)COC(=O)c3[nH]nc4ccccc34)c2C)cc1 | > 10 µM | > 10 µM | 
CCCc1ccc(-c2nc(-c3cccs3)no2)cc1 |  | 0.0812 µM | 
CC(C)(C)c1ccc(NC(=O)c2nc(-c3ccccc3)n(-c3ccccc3)n2)cc1 | > 10 µM | > 10 µM | 
CCOc1ccc(Nc2nc(-c3c(C)nc4cc(C)ccn34)cs2)cc1 |  | 6.99 µM | 
N#CCNc1ccccc1 [(PHENYLAMINO)ACETONITRILE] | > 10 µM | > 10 µM | 
O=c1c2ccccc2[nH]c2ccccc12 [ACRIDONE] |  | 5.03 µM | IC50 (PBLUC_HILL_SLOPE 1.89, PBLUC_R_SQUARED 0.789, read-out: LUCIFERASE INFECTION ASSAY - IC50): 1.57 µM
CC(=C\c1ccc(Cl)cc1)/C(C)=N/O [AP18 5] |  | 5.3 µM | IC50 (HEPG2TOX_HILL_SLOPE 1.12, HEPG2TOX_R_SQUARED 0.98, PBLUC_HILL_SLOPE 2.33, PBLUC_R_SQUARED 0.772, read-out: LUCIFERASE INFECTION ASSAY - IC50): 2.07 µM
CC12CCC(CC1=O)C2(C)C (configuration not stated) [CAMPHOR] |  | > 21.7 µM | IC50 (FFLUC_HILL_SLOPE 14.9, FFLUC_R_SQUARED 0.342, read-out: LUCIFERASE INFECTION ASSAY - IC50): > 21.7 µM
N#CC(C#N)=NNc1cccc(Cl)c1 [CARBONYL CYANIDE M-CHLOROPHENYLHYDRAZONE] | 3.84 µM | 13.9 µM | 
O=C(O)CNC(=O)/C=C/c1ccccc1 [CINNAMOYLGLYCINE] | > 10 µM | > 10 µM | 
CC1(C)N=C(N)N=C(N)N1c1ccc(Cl)cc1 [CYCLOGUANIL] |  | 0.515 µM | IC50 (FFLUC_HILL_SLOPE 0.496, FFLUC_R_SQUARED 0.478, PBLUC_HILL_SLOPE 5.33, PBLUC_R_SQUARED 0.733, read-out: LUCIFERASE INFECTION ASSAY - IC50): 0.341 µM
C/C=C(/C(=C/C)c1ccc(O)cc1)c1ccc(O)cc1 [DIENESTROL] |  | > 12.4 µM | IC50 (FFLUC_HILL_SLOPE 1.35, FFLUC_R_SQUARED 0.489, HEPG2TOX_HILL_SLOPE 1.17, HEPG2TOX_R_SQUARED 0.908, PBLUC_HILL_SLOPE 0.733, PBLUC_R_SQUARED 0.69, read-out: LUCIFERASE INFECTION ASSAY - IC50): 1.24 µM
C[C@H]1O[C@@H](O[C@H]2[C@@H](O)C[C@H](O[C@H]3[C@@H](O)C[C@H](O[C@H]4CC[C@@]5(C)[C@H](CC[C@@H]6[C@@H]5C[C@@H](O)[C@]5(C)[C@@H](C7=CC(=O)OC7)CC[C@]65O)C4)O[C@@H]3C)O[C@@H]2C)C[C@H](O)[C@@H]1O [DIGOXIN] | 0.0489 µM | 0.117 µM | 
C[C@]12CC[C@@H]3c4ccc(O)cc4CC[C@H]3[C@@H]1CC[C@@H]2O [ESTRADIOL] | 5.43 µM | 9.85 µM | 
CCOc1ccc2nc3cc(N)ccc3c(N)c2c1 [ETHACRIDINE] |  | > 9.61 µM | IC50 (HEPG2TOX_HILL_SLOPE 3.77, HEPG2TOX_R_SQUARED 0.987, read-out: LUCIFERASE INFECTION ASSAY - IC50): > 9.61 µM
C=CCc1ccc(O)c(-c2ccc(O)c(CC=C)c2)c1 [HONOKIOL] |  | > 12.4 µM | IC50 (FFLUC_HILL_SLOPE 14.9, FFLUC_R_SQUARED 0.388, read-out: LUCIFERASE INFECTION ASSAY - IC50): > 12.4 µM
CC(C)(C)c1ccc(Oc2ccc(N)cn2)cc1 [LIMANTRAFIN] |  | > 13.6 µM | IC50 (PBLUC_HILL_SLOPE 0.71, PBLUC_R_SQUARED 0.895, read-out: LUCIFERASE INFECTION ASSAY - IC50): 1.19 µM
CC(=O)c1c(C)[n+]([O-])c2ccccc2[n+]1[O-] [MEQUINDOX] |  | > 15.1 µM | IC50 (FFLUC_HILL_SLOPE 0.566, FFLUC_R_SQUARED 0.11, read-out: LUCIFERASE INFECTION ASSAY - IC50): > 15.1 µM
CCOc1cc(-c2nccc3cc(OC)c(OC)cc23)cc(OCC)c1OCC [OCTAVERINE] |  | 8.02 µM | IC50 (PBLUC_HILL_SLOPE 10.1, PBLUC_R_SQUARED 0.35, read-out: LUCIFERASE INFECTION ASSAY - IC50): 6.45 µM
COc1ccc(Cc2nccc3cc(OC)c(OC)cc23)cc1OC [PAPAVERINE] | > 8.78 µM | > 8.78 µM | 
